The source of these data is ChEMBL document CHEMBL2074085, “P-glycoprotein (P-gp/MDR1)-mediated efflux of sex-steroid hormones and modulation of P-gp expression in vitro” (Pharm Res, 2004).

ATP-dependent translocase ABCB1, sequence (P08183 whole entry): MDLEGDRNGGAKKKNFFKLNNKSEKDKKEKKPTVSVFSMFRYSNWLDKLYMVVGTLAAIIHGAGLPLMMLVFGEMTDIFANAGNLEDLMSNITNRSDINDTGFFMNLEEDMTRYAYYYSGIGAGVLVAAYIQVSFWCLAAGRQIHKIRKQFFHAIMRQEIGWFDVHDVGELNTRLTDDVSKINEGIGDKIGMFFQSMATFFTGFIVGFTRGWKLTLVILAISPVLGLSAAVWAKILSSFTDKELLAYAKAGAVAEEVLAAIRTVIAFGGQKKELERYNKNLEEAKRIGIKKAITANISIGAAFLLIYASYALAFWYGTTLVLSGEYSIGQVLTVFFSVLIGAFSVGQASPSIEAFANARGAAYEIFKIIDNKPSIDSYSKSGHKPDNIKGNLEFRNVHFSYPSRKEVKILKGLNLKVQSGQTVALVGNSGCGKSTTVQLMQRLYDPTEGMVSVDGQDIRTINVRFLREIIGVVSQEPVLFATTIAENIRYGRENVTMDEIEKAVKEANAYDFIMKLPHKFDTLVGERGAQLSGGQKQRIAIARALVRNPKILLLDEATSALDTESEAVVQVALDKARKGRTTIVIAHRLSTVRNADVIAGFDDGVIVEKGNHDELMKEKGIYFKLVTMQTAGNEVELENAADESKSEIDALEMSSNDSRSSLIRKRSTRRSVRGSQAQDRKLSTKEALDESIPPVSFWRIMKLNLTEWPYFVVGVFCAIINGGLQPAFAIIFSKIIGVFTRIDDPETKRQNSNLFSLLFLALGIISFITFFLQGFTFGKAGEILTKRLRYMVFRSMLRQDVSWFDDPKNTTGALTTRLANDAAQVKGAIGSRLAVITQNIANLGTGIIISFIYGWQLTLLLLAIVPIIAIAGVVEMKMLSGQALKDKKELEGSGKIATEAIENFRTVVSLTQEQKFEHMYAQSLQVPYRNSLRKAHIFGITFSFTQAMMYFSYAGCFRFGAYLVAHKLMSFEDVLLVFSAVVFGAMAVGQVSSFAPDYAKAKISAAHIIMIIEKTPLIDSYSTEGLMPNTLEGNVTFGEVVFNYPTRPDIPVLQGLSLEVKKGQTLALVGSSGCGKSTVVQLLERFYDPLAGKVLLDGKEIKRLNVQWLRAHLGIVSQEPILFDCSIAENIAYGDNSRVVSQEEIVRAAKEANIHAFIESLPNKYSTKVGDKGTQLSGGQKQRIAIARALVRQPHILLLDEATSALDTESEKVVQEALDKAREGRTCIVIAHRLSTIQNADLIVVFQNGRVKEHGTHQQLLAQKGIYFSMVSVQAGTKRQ

This data set has as its target ATP-dependent translocase ABCB1 (Homo sapiens, UniProt P08183). Put plainly: TP_TRANSPORTER: transepithelial transport in MDR1-expressing MDCK cells. It is filed as functional, cell-based. The following applies: dog.
In the case of `C[C@]12CC[C@@H]3c4ccc(O)cc4CC[C@H]3[C@@H]1CCC2=O` [ESTRONE], the Activity entry was “substrate [+]”.

In the case of `C#C[C@]1(O)CC[C@H]2[C@@H]3CCC4=CC(=O)CC[C@@H]4[C@H]3CC[C@@]21C` [NORETHINDRONE], the Activity entry is “is not a substrate [-]”.

As to `CC(=O)[C@H]1CC[C@H]2[C@@H]3CCC4=CC(=O)CC[C@]4(C)[C@H]3CC[C@]12C` [PROGESTERONE], the Activity entry is “is not a substrate [-]”.

Turning to `C[C@]12CC[C@@H]3c4ccc(O)cc4CC[C@H]3[C@@H]1CC[C@@H]2O` [ESTRADIOL], the Activity entry is “is not a substrate [-]”.

For `C#C[C@]1(O)CC[C@H]2[C@@H]3CCc4cc(O)ccc4[C@H]3CC[C@@]21C` [ETHINYL ESTRADIOL], the Activity result is “substrate [+]”.

Take `C[C@]12CC[C@@H]3c4ccc(O)cc4CC[C@H]3[C@@H]1C[C@@H](O)[C@@H]2O` [ESTRIOL]: the Activity result is “substrate [+]”.
